According to patent publication US12187720B2, “Compounds for treatment of cancer” (ONCTERNAL THERAPEUTICS, INC., priority 2010, dated 2025):

Each molecule was assayed on PC-3 (assay: SRB cytotoxicity assay, PC-3 prostate cancer cells). Conditions: Homo sapiens, PC-3; Table 13A; read-out: inhibitory effects PC3.
Type: cell-based, human
From the text: (§1) Cells were stained with SRB solution.

Compound | IC50
COc1cc(C(=O)c2nc(-c3ccccc3)c[nH]2)cc(OC)c1OC [70a, (4-phenyl-1H-imidazol-2-yl)(3,4,5-trimethoxyphenyl)methanone] | 14 nM
COc1cc(C(=O)c2nc(-c3ccccc3)cn2C)cc(OC)c1OC [70m, (1-methyl-4-phenyl-1H-imidazol-2-yl)(3,4,5-trimethoxyphenyl)methanone] | 16 nM
CCn1cc(-c2ccccc2)nc1C(=O)c1cc(OC)c(OC)c(OC)c1 [70n, (1-ethyl-4-phenyl-1H-imidazol-2-yl)(3,4,5-trimethoxyphenyl)methanone] | 25 nM
COc1cc(C(=O)c2nc(-c3ccccc3)cn2Cc2ccccc2)cc(OC)c1OC [70o, (1-benzyl-4-phenyl-1H-imidazol-2-yl)(3,4,5-trimethoxyphenyl)methanone] | 72 nM
COc1cc(C(=O)c2nc(-c3ccccc3)cn2C2CCCC2)cc(OC)c1OC [70p, (1-cyclopentyl-4-phenyl-1H-imidazol-2-yl)(3,4,5-trimethoxyphenyl)methanone] | 56 nM

Each molecule was assayed on LNCaP (assay: SRB cytotoxicity assay, LNCaP prostate cancer cells). Conditions: Homo sapiens, LNCaP; Table 6A; read-out: IC50 LNCaP.
Type: cell-based, human
From the text: as §1

Compound | IC50
COc1cc(C(=O)c2csc(-c3ccccc3)n2)cc(OC)c1OCc1ccccc1 [compound 9] | ~10000 nM
O=C(c1ccc(F)cc1)c1csc(-c2ccccc2)n1 [compound 12] | > 10000 nM
O=C(c1ccc(OC(F)(F)F)cc1)c1csc(-c2ccccc2)n1 [compound 13] | > 10000 nM
O=C(c1ccc(F)cc1)c1csc(-c2ccc(F)cc2)n1 [compound 14] | > 10000 nM
O=C(c1csc(-c2cc(F)c(F)c(F)c2)n1)c1c(F)c(F)c(F)c(F)c1F [compound 16] | > 10000 nM
COc1cc(C(=O)c2csc(-c3ccccc3)n2)cc(OC)c1OC(=O)CCl [compound 18] | ~10000 nM
O=C(c1ccc2c(c1)OCO2)N1CCC(c2ccccc2)CC1 [compound 19] | > 20000 nM
O=C(c1ccc(F)cc1)N1CCC(c2ccccc2)CC1 [compound 22] | > 20000 nM
COc1cc(C(=O)c2csc(-c3ccccc3)n2)cc(OC)c1OC(=O)C(F)(F)F [compound 23] | ~10000 nM
COc1cc(-c2nc(C(=O)c3ccc(F)cc3)cn2C(=O)c2ccc(F)cc2)cc(OC)c1OC [compound 30] | > 10000 nM
O=C(c1cc(O)c(O)c(O)c1)c1csc(-c2ccccc2)n1 [compound 33] | > 2000 nM

What follows are molecules tested on melanoma and prostate cancer cell lines (assay: SRB cytotoxicity, summary or average over melanoma and prostate cancer cell lines). Conditions: not given.
Type: cell-based

Compound | antiproliferative activity in words
COc1cc(C(=O)c2cccc(-c3ccccc3)c2)cc(OC)c1OC [1a, Biphenyl-3-yl(3,4,5-trimethoxyphenyl)methanone] | hundreds of nanomolar range
COc1cc(C(O)c2csc(-c3ccccc3)n2)cc(OC)c1OC (centres unmarked) [2b, (2-Phenylthiazol-4-yl)(3,4,5-trimethoxyphenyl)methanol] | inactive
CNCc1ccc(-c2nc(C(=O)c3cc(OC)c(OC)c(OC)c3)cs2)cc1.Cl [2s, (2-(4-((Methylamino)methyl)phenyl)thiazol-4-yl)(3,4,5-trimethoxyphenyl)methanone hydrochloride] | abrogated activity
COc1cc(C(=O)c2csc(-c3ccc(CN(C)C)cc3)n2)cc(OC)c1OC.Cl [2u, (2-(4-((Dimethylamino)methyl)phenyl)thiazol-4-yl)(3,4,5-trimethoxyphenyl)methanone hydrochloride] | abrogated activity
COc1cc(/C=C\c2csc(-c3ccccc3)n2)cc(OC)c1OC [3a, (Z)-2-Phenyl-4-(3,4,5-trimethoxystyryl)thiazole] | lost activity

Same assay, conditions: average of all seven cell lines

Compound | IC50
Cc1ccc(-c2nc(C(=O)c3ccc(F)cc3)cn2S(=O)(=O)c2ccccc2)cc1 [11db, (4-fluorophenyl)(1-(phenylsulfonyl)-2-(p-tolyl)-1H-imidazol-4-yl)methanone] | 111 nM
COc1cc(C(=O)c2cn(S(=O)(=O)c3ccccc3)c(-c3ccc(N(C)C)cc3)n2)cc(OC)c1OC [11ga, (2-(4-(dimethylamino)phenyl)-1-(phenylsulfonyl)-1H-imidazol-4-yl)(3,4,5-trimethoxyphenyl)methanone] | 285 nM
